From ChEMBL document CHEMBL5149970 (J Med Chem, 2021)
The source made the active and inactive calls. The rule behind the calls is not given here.

Legend:
[1] = Antiproliferative activity against human EU-1 cells assessed as inhibition of cell growth incubated for 48 hrs by WST assay; format: functional, cell-based; conditions: EU-1, 48 h
[2] = system: CFU-GM; assay: Inhibition of colony formation in human CFU-GM cells assessed as reduction in colony number and size at 1 uM incubated for 14 days by crystal violet staining based analysis; format: toxicity, cell-based; conditions: 336 h, time 14 day
[3] = Inhibition of colony formation in human BFU-E cells assessed as reduction in colony number and size at 1 uM incubated for 14 days by crystal violet staining based analysis; format: toxicity, cell-based; conditions: 336 h, time 14 day
[4] = system: EU-1; assay: Inhibition of MDM2/XIAP IRES mRNA interaction in human EU-1 cells assessed as increase in caspase-3 cleavage at 5 uM measured for 24 hrs by western blot analysis; format: cell-based
[5] = system: EU-1; assay: Inhibition of MDM2/XIAP IRES mRNA interaction in human EU-1 cells assessed as increase in caspase-9 cleavage at 5 uM measured for 24 hrs by western blot analysis; format: cell-based
[6] = system: EU-1; assay: Inhibition of MDM2/XIAP IRES mRNA interaction in human EU-1 cells assessed as increase in PARP cleavage at 5 uM measured for 24 hrs by western blot analysis; format: cell-based

Cc1ccc(NS(=O)(=O)c2ccc3c(c2)C2OCCC2C(c2ccc(C(C)C)cc2)N3)cc1C (stereo unspecified)
IC50 [1]: 4.2 µM

CC(=O)c1cccc(C2Nc3ccc(S(=O)(=O)Nc4ccc(C)c(C)c4)cc3C3OCCC23)c1 (stereo unspecified)
IC50 [1]: 2 µM

Cc1cccc(NS(=O)(=O)c2ccc3c(c2)C2OCCC2C(c2ccc(C(=O)C(C)C)cc2)N3)c1 (stereo unspecified)
IC50 [1]: 1.4 µM

Cc1ccc(NS(=O)(=O)c2ccc3c(c2)C2CCCC2C(c2ccc(C(=O)C(C)C)cc2)N3)cc1C (stereo unspecified)
IC50 [1]: 7 µM

Cc1ccc(NS(=O)(=O)c2ccc3c(c2)C2NCCC2C(c2ccc(C(=O)C(C)C)cc2)N3)cc1C (stereo unspecified)
IC50 [1]: 3.8 µM

Cc1ccc(NS(=O)(=O)c2ccc3c(c2)C2OCCC2C(c2ccc(C(=O)C(C)C)cc2)N3)cc1 (stereo unspecified)
IC50 [1]: 3.3 µM

COC(=O)c1ccc(C2Nc3c(Cl)cc(S(=O)(=O)Nc4ccc(C)c(C)c4)cc3C3OCCC23)cc1 (stereo unspecified)
IC50 [1]: > 50 µM

COC(=O)c1ccc(C2Nc3ccc(S(=O)(=O)Nc4ccc(C)c(C)c4)cc3C3OCCCC23)cc1 (stereo unspecified)
IC50 [1]: 4.6 µM

CC(C)C(=O)c1ccc(C2Nc3ccc(S(=O)(=O)Nc4ccccc4)cc3C3OCCC23)cc1 (stereo unspecified)
IC50 [1]: 3.2 µM

Cc1ccc(NS(=O)(=O)c2ccc3c(c2)C2OCCC2C(c2ccc(S(C)(=O)=O)cc2)N3)cc1C (stereo unspecified)
IC50 [1]: 4.1 µM

Cc1ccc(NS(=O)(=O)c2ccc3c(c2)[C@H]2OCC[C@H]2[C@H](c2ccc(C(=O)C(C)C)cc2)N3)cc1C
IC50 [1]: 2.4 µM

COC(=O)c1ccc(C2Nc3ccc(S(=O)(=O)Nc4ccc(C)c(C)c4)cc3C3NCCC23)cc1 (stereo unspecified)
IC50 [1]: 3.5 µM

CC(=O)c1ccc(C2Nc3ccc(S(=O)(=O)Nc4ccc(C)c(C)c4)cc3C3OCCC23)cc1 (stereo unspecified)
IC50 [1]: 0.5 µM

COc1cccc2c1C(=O)c1c(O)c3c(c(O)c1C2=O)C[C@@](O)(C(=O)CO)C[C@@H]3O[C@H]1C[C@H](N)[C@H](O)[C@H](C)O1 [DOXORUBICIN]
Activity [2]: Toxic | Activity [3]: Toxic

Cc1ccc(NS(=O)(=O)c2ccc3c(c2)C2OCCC2C(c2ccc(C(=O)c4ccccc4)cc2)N3)cc1C (stereo unspecified)
IC50 [1]: 3.2 µM

Cc1ccc(NS(=O)(=O)c2ccc3c(c2)C2OCCC2C(c2ccc(Br)cc2)N3)cc1C (stereo unspecified)
IC50 [1]: 3.6 µM

Cc1ccc(NS(=O)(=O)c2ccc3c(c2)C2OCCC2C(c2cccc(C(=O)C(C)C)c2)N3)cc1C (stereo unspecified)
IC50 [1]: 3.6 µM

Cc1cc(NS(=O)(=O)c2ccc3c(c2)C2OCCC2C(c2ccc(C(=O)C(C)C)cc2)N3)ccc1C(F)(F)F (stereo unspecified)
IC50 [1]: 7.2 µM

Cc1ccc(NS(=O)(=O)c2ccc3c(c2)C2OCCC2C(c2cccc4ccccc24)N3)cc1C (stereo unspecified)
IC50 [1]: 6.1 µM

Cc1ccc(NS(=O)(=O)c2ccc3c(c2Cl)C2C=CCC2C(c2ccc(S(C)(=O)=O)cc2)N3)cc1C (stereo unspecified)
IC50 [1]: 23.4 µM

Cc1cc(NS(=O)(=O)c2ccc3c(c2)C2OCCC2C(c2ccc(C(=O)C(C)C)cc2)N3)ccc1F (stereo unspecified)
IC50 [1]: 2.9 µM

CC(C)C(=O)c1ccc(C2Nc3ccc(S(=O)(=O)Nc4ccc(Cl)c(Cl)c4)cc3C3OCCC23)cc1 (stereo unspecified)
IC50 [1]: 5.6 µM

CCCC(=O)c1ccc(C2Nc3ccc(S(=O)(=O)Nc4ccc(C)c(C)c4)cc3C3OCCC23)cc1 (stereo unspecified)
IC50 [1]: 2.9 µM

Cc1cc(NS(=O)(=O)c2ccc3c(c2)C2OCCC2C(c2ccc(C(=O)C(C)C)cc2)N3)ccc1Cl (stereo unspecified)
IC50 [1]: 6.3 µM

COC(=O)c1ccc(C2Nc3cc(Cl)c(S(=O)(=O)Nc4ccc(C)c(C)c4)cc3C3OCCC23)cc1 (stereo unspecified)
IC50 [1]: > 50 µM

Cc1ccc(NS(=O)(=O)c2ccc3c(c2)C2C=CCC2C(c2ccc(C(=O)C(C)C)cc2)N3)cc1C (stereo unspecified)
IC50 [1]: 2.7 µM

Cc1ccc(NS(=O)(=O)c2ccc3c(c2)C2C=CCC2C(c2ccc(S(C)(=O)=O)cc2)N3)cc1C (stereo unspecified)
IC50 [1]: 6.2 µM

Cc1ccc(NS(=O)(=O)c2ccc3c(c2)C2OCCC2C(c2ccc(C(=O)C4CC4)cc2)N3)cc1C (stereo unspecified)
IC50 [1]: 5.2 µM

Cc1ccc(NS(=O)(=O)c2ccc3c(c2)[C@@H]2OCC[C@@H]2[C@H](c2ccc(C(=O)C(C)C)cc2)N3)cc1C
IC50 [1]: 1.6 µM

Cc1ccc(NS(=O)(=O)c2ccc3c(c2)C2OCCC2C(c2ccc(C(O)C(C)C)cc2)N3)cc1C (stereo unspecified)
IC50 [1]: 2 µM

CC(C)C(=O)c1ccc(C2Nc3ccc(S(=O)(=O)Nc4ccc(Br)c(Br)c4)cc3C3OCCC23)cc1 (stereo unspecified)
IC50 [1]: 5.2 µM

Cc1ccc(N(C)S(=O)(=O)c2ccc3c(c2)C2OCCC2C(c2ccc(C(=O)C(C)C)cc2)N3C)cc1C (stereo unspecified)
IC50 [1]: 1.2 µM

Cc1ccc(NS(=O)(=O)c2ccc3c(c2)C2C=CCC2C(c2ccc(C(=O)O)cc2)N3)cc1C (stereo unspecified)
IC50 [1]: 7.5 µM | inhibition [4]: Active | inhibition [5]: Active | inhibition [6]: Active

Cc1ccc(NS(=O)(=O)c2ccc3c(c2)C2OCCCC2C(c2ccc(C(=O)O)cc2)N3)cc1C (stereo unspecified)
IC50 [1]: > 50 µM

Cc1ccc(NS(=O)(=O)c2cc3c(cc2Cl)NC(c2ccc(S(C)(=O)=O)cc2)C2CC=CC32)cc1C (stereo unspecified)
IC50 [1]: > 50 µM

Cc1ccc(NS(=O)(=O)c2ccc3c(c2)C2OCCC2C(c2ccc(C(=O)C4CCCCC4)cc2)N3)cc1C (stereo unspecified)
IC50 [1]: 3.1 µM

COC(=O)c1ccc(C2Nc3ccc(S(=O)(=O)Nc4ccc(C)c(C)c4)cc3C3OCCC23)cc1 (stereo unspecified)
IC50 [1]: 2.2 µM

C=CC(=O)c1ccc(C2Nc3ccc(S(=O)(=O)Nc4ccc(C)c(C)c4)cc3C3OCCC23)cc1 (stereo unspecified)
IC50 [1]: 30 µM

Cc1ccc(NS(=O)(=O)c2ccc3c(c2)C2NCCC2C(c2ccc(C(=O)O)cc2)N3)cc1C (stereo unspecified)
IC50 [1]: > 50 µM

Cc1ccc(NS(=O)(=O)c2ccc3c(c2)C2OCCC2C(c2ccc(C(=O)C(C)C)cc2)N3)cc1Cl (stereo unspecified)
IC50 [1]: 1.6 µM

Cc1ccc(N(C)S(=O)(=O)c2ccc3c(c2)C2OCCC2C(c2ccc(C(=O)C(C)C)cc2)N3)cc1C (stereo unspecified)
IC50 [1]: 1.6 µM

COC(=O)c1ccc(C2Nc3ccc(S(=O)(=O)Nc4ccc(C)c(C)c4)cc3C3C=CCC32)cc1 (stereo unspecified)
IC50 [1]: 4.7 µM

Cc1ccc(NS(=O)(=O)c2ccc3c(c2)C2c4ccccc4CC2C(c2ccc(C(=O)O)cc2)N3)cc1C (stereo unspecified)
IC50 [1]: 20.5 µM

Cc1ccc(NS(=O)(=O)c2ccc3c(c2)C2OCCC2C(c2ccc(C(=O)O)cc2)N3)cc1C (stereo unspecified)
IC50 [1]: > 50 µM

Cc1ccc(NS(=O)(=O)c2ccc3c(c2)[C@H]2OCC[C@H]2[C@@H](c2ccc(C(=O)C(C)C)cc2)N3)cc1C
IC50 [1]: 0.3 µM

Cc1ccc(NS(=O)(=O)c2ccc3c(c2)[C@@H]2OCC[C@@H]2[C@@H](c2ccc(C(=O)C(C)C)cc2)N3)cc1C
IC50 [1]: 1.9 µM

COC(=O)c1ccc(C2Nc3ccc(S(=O)(=O)Nc4ccc(C)c(C)c4)cc3C3c4ccccc4CC23)cc1 (stereo unspecified)
IC50 [1]: 18.3 µM
